Data reported in patent publication US20190359756A1, “OPTICAL MEMBER FORMING COMPOSITION” (Mitsubishi Gas Chemical Company, Inc., priority 2016, published 2019).

How the values were obtained:
Format in all cases: physicochemical
[1] = Solubility test in propylene glycol monomethyl ether acetate; details: 23° C., ultrasonic waves 30 minutes, amount of complete dissolution
Protocol: The solubility was evaluated by precisely weighing the compound into a test tube, adding propylene glycol monomethyl ether acetate at 23° C. so as to attain a predetermined concentration, applying ultrasonic waves for 30 minutes in an ultrasonic cleaner, then visually observing the subsequent state of the fluid, determining the concentration of the amount of complete dissolution, and conducting evaluation according to the following criteria.
A: 5.0% by mass Amount of dissolution
B: 3.0% by mass Amount of dissolution <5.0% by mass
C: Amount of dissolution <3.0% by mass

[2] = Transparency (absorption constant) of optical member forming film; details: wavelength 633 nm, film thickness 1000 nm, baked at 110° C. for 60 seconds
Protocol: (§1) The compound was dissolved at 5% by mass in propylene glycol methyl ether to prepare an optical member forming material. Next, a silicon substrate was spin coated with the optical member forming material, and then baked at 110° C. for 60 seconds to form an optical member forming film with a film thickness of 1000 nm.
(§2) Subsequently, the refractive index and transparency tests at a wavelength of 633 nm were conducted using a vacuum ultraviolet variable angle spectroscopic ellipsometer (VUV-VASE) manufactured by J. A. Woollam Co., Inc. The refractive index and the transparency were evaluated according to the following criteria.
A: The absorption constant was less than 0.03.
B: The absorption constant was 0.03 or more and less than 0.05.
C: The absorption constant was 0.05 or more.

[3] = Film heat resistance; design: key: A: No defect in the film was visually observed.; C: Defects in the film were visually observed (including disappearance of the film); details: film baked at 110° C. for 5 minutes, visual observation
Protocol: as §1
The optical member forming film obtained as described above was baked at 110° C. for 5 minutes, and evaluation of film heat resistance was carried out according to the following criteria.
A: No defect in the film was visually observed.
C: Defects in the film were visually observed (including disappearance of the film).

[4] = Refractive index of optical member forming film (spectroscopic ellipsometer); details: wavelength 633 nm, film thickness 1000 nm, baked at 110° C. for 60 seconds
Protocol: as §1, §2
A: The refractive index was 1.65 or more.
C: The refractive index was less than 1.65.

Solubility [1]	Film heat resistance [3]	SMILES	Absorption constant [2]	Refractive index [4]
A (5.0% by mass Amount of dissolution)	A	CCCc1ccc(C2c3c(ccc4cc(O)ccc34)Oc3ccc4cc(O)ccc4c32)cc1 [XBisN-3]	A (The absorption constant was less than 0.03.)	A (The refractive index was 1.65 or more.)
A (5.0% by mass Amount of dissolution)	A	Oc1ccc(C2c3c(ccc4cc(O)ccc34)Oc3ccc4cc(O)ccc4c32)cc1 [XBisN-4]	A (The absorption constant was less than 0.03.)	A (The refractive index was 1.65 or more.)
A (5.0% by mass Amount of dissolution)	A	Oc1ccc2c3c(ccc2c1)Oc1ccc2cc(O)ccc2c1C3c1ccc(C2CCCCC2)cc1 [XBisN-5]	A (The absorption constant was less than 0.03.)	A (The refractive index was 1.65 or more.)
A (5.0% by mass Amount of dissolution)	A	CC(C)Cc1ccc(C2c3c(ccc4ccc(O)cc34)Oc3ccc4ccc(O)cc4c32)cc1 [XBisN-6]	A (The absorption constant was less than 0.03.)	A (The refractive index was 1.65 or more.)
A (5.0% by mass Amount of dissolution)	A	CCCc1ccc(C2c3c(ccc4ccc(O)cc34)Oc3ccc4ccc(O)cc4c32)cc1 [XBisN-7]	A (The absorption constant was less than 0.03.)	A (The refractive index was 1.65 or more.)
A (5.0% by mass Amount of dissolution)	A	Oc1ccc(C2c3c(ccc4ccc(O)cc34)Oc3ccc4ccc(O)cc4c32)cc1 [XBisN-8]	A (The absorption constant was less than 0.03.)	A (The refractive index was 1.65 or more.)
A (5.0% by mass Amount of dissolution)	A	Oc1ccc2ccc3c(c2c1)C(c1ccc(C2CCCCC2)cc1)c1c(ccc2ccc(O)cc12)O3 [XBisN-9]	A (The absorption constant was less than 0.03.)	A (The refractive index was 1.65 or more.)
A (5.0% by mass Amount of dissolution)	A	Oc1ccc2c3c(ccc2c1)Oc1ccc2cc(O)ccc2c1C3c1ccc(-c2ccccc2)cc1 [XiN-1]	A (The absorption constant was less than 0.03.)	A (The refractive index was 1.65 or more.)
A (5.0% by mass Amount of dissolution)	A	Oc1ccc2c3c(ccc2c1)Oc1ccc2cc(O)ccc2c1C3c1ccc(-c2ccc(C3c4c(ccc5cc(O)ccc45)Oc4ccc5cc(O)ccc5c43)cc2)cc1 [XiN-3]	A (The absorption constant was less than 0.03.)	A (The refractive index was 1.65 or more.)

More lines, now with the values behind:

SMILES	Solubility [1]	Film heat resistance [3]	Absorption constant [2]	Refractive index [4]
Oc1ccc(C(c2ccc(-c3ccccc3)cc2)c2ccc(O)c(-c3ccccc3)c2)cc1-c1ccccc1 [BiP-1]	A (5.0% by mass Amount of dissolution)	A	A (The absorption constant was less than 0.03.)	A (The refractive index was 1.65 or more.)
Oc1ccc(-c2ccc(O)c(C(c3ccc(-c4ccccc4)cc3)c3cc(-c4ccc(O)cc4)ccc3O)c2)cc1 [BiP-2]	A (5.0% by mass Amount of dissolution)	A	A (The absorption constant was less than 0.03.)	A (The refractive index was 1.65 or more.)
Oc1ccc(C(c2ccc(-c3ccccc3)cc2)c2ccc(O)cc2O)c(O)c1 [Example P-5]	A (5.0% by mass Amount of dissolution)	A	A (The absorption constant was less than 0.03.)	A (The refractive index was 1.65 or more.)
Oc1ccc(C(c2ccccc2)c2ccc(O)cc2O)c(O)c1 [Example P-6]	A (5.0% by mass Amount of dissolution)	A	A (The absorption constant was less than 0.03.)	A (The refractive index was 1.65 or more.)
Oc1ccc(C(c2ccc(C3CCCCC3)cc2)c2ccc(O)cc2O)c(O)c1 [Example P-7]	A (5.0% by mass Amount of dissolution)	A	A (The absorption constant was less than 0.03.)	A (The refractive index was 1.65 or more.)
Oc1ccc2ccc3c(c2c1)C(c1ccc(-c2ccc(C4c5c(ccc6ccc(O)cc56)Oc5ccc6ccc(O)cc6c54)cc2)cc1)c1c(ccc2ccc(O)cc12)O3 [XBiN 3]	A (5.0% by mass Amount of dissolution)	A	A (The absorption constant was less than 0.03.)	A (The refractive index was 1.65 or more.)
CC(C)Cc1ccc(C2c3c(ccc4cc(O)ccc34)Oc3ccc4cc(O)ccc4c32)cc1 [XBisN 2]	A (5.0% by mass Amount of dissolution)	A	A (The absorption constant was less than 0.03.)	A (The refractive index was 1.65 or more.)
